The test system of assay [1] is HRAS (DNA, G4) TCGGGTTGCGGGCGCAGGGCACGGGCG
Kind of assay: UV-vis absorption titration. To be noted: K+ 100 mM; 10 mM Tris-HCl pH 7.4; 5 µM c-exNDI; apparent; overall constant of 2:1 model.

For assay [2], the system named is c-kit2 (DNA, G4) CCCGGGCGGGCGCGAGGGAGGGGAGG
Kind of assay: fluorescence light-up. The following applies: K+ 100 mM; 10 mM Tris-HCl pH 7.4; 5 µM each; quantum yield 0.13 against 0.08 free.

For assay [3], the system named is c-myc (DNA, G4) TGAGGGTGGGTAGGGTGGGTAA
Kind of assay: UV-vis absorption titration. To be noted: K+ 100 mM; 10 mM Tris-HCl pH 7.4; 5 µM c-exNDI; apparent; main text prints error ± 0.3.

The test system of assay [4] is TBA (DNA, G4) GGTTGGTGTGGTTGG
Kind of assay: UV-vis absorption titration. The following applies: K+ 100 mM; 10 mM Tris-HCl pH 7.4; 5 µM c-exNDI; apparent.

The subject of assay [5] is hTel22 (DNA, G4) AGGGTTAGGGTTAGGGTTAGGG
Kind of assay: circular dichroism (induced CD). The following applies: K+ 100 mM; 4 µM G4, 16 µM c-exNDI.

Assay [6] shares this test system. Kind of assay: UV-vis absorption titration. To be noted: 10 mM Tris-HCl pH 7.4, 5 µM c-exNDI, apparent.
The test system of assay [7] is ssDNA (DNA, single strand) GGATGTGAGTGTGAGTGTGAGG
As to the kind of experiment: UV-vis absorption titration. The following applies: K+ 100 mM; 10 mM Tris-HCl pH 7.4; 5 µM c-exNDI; apparent.

The subject of assay [8] is dsDNA (DNA, duplex) CAATCGGATCGAATTCGATCCGATTG
Kind of assay: UV-vis absorption titration. The following applies: K+ 100 mM; 10 mM Tris-HCl pH 7.4; 5 µM c-exNDI; apparent.

Assay [9] concerns hTel22 (DNA, G4) AGGGTTAGGGTTAGGGTTAGGG
As to the kind of experiment: fluorescence titration. To be noted: K+ 100 mM; 10 mM Tris-HCl pH 7.4; 5 µM c-exNDI; apparent.

Assay [10] has as its system c-kit1 (DNA, G4) AGGGAGGGCGCTGGGAGGAGGG
Kind of assay: UV-vis absorption titration. To be noted: K+ 100 mM; 10 mM Tris-HCl pH 7.4; 5 µM c-exNDI; apparent.

In the case of `CN(C)CCCn1c(=O)c2ccc3c(=O)n(CCCN(C)C)c(=O)c4c5[nH]c6ccccc6[nH]c5c(c1=O)c2c34`, the “K1:2” value was 3.0±0.3x10^10 M^-2 in assay [1] and 3.0±0.3x10^11 M^-2 in [6] (Na+ 100 mM, overall constant of 2:1 model). The binding entry in assay [2] and in assay [5] was “yes” throughout. Further, the “K1:1” value is reported as 3.43±0.03x10^7 M^-1 in assay [3]; 1.2±0.5x10^5 M^-1 in assay [4]; 5.37±0.06x10^6 M^-1 in assay [6] (K+ 100 mM); 2.85±0.01x10^5 M^-1 in assay [7]; 7.41±0.03x10^3 M^-1 in [8]; 5.34±0.03x10^6 M^-1 in assay [9]. The “K1:1” value in assay [10] was 4.82±0.04x10^6 M^-1.

The values above are taken from publication PMC5471928 (2017).
